In patent publication US20260217683A1, “PYRIDAZINONE HETEROCYCLIC COMPOUND MYOSIN II INHIBITOR AND USE THEREOF” (Xizang Haisco Pharmaceutical Co., Ltd., priority 2023, published 2026):
Like-named read-outs stand apart in the source and are kept apart here.

What was measured:
[1] = test system: rabbit skeletal muscle myosin; assay: Inhibition of hydrolysis of ATP by rabbit skeletal muscle myosin; assay type: biochemical
In short: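 Actin-activated ATPase: F-actin plus rabbit skeletal myosin II with compound in Tris-HCl pH 7.5/KCl/EGTA/MgCl2, started with ATP (3 mM working stock) and run 60 min at 37 °C. Released Pi measured by CytoPhos absorbance at 650 nm against a phosphate standard curve; IC50 fitted from inhibition relative to uninhibited myosin.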

[2] = biological target: T1, smooth muscle myosin S1 (Gallus gallus, UniProt P10587); assay: Inhibition of hydrolysis of ATP by smooth muscle myosin S1 fragments; assay type: biochemical; details: 100 μM compound
T1 construct: purchased Cytoskeleton #CS-MYS05
In short: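 Smooth muscle myosin S1 fragment (0.7 mg/mL in PM12 buffer with 1 mM DTT) was mixed with compound and F-actin polymer prepared from cardiac actin, then 5 mM ATP working solution started the reaction at 37° C. for 20 min. Released Pi was measured with CytoPhos reagent at 650 nm against a standard curve, and inhibition was calculated relative to positive control wells.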

[3] = biological target: T2, CYP2C19 (Homo sapiens, UniProt P33261); assay: CYP450 enzyme inhibition, human liver microsomes, CYP2C19; assay type: in vitro ADME
T2 construct: incubated with human liver microsomes and test compounds of different concentrations; from tissue; host or cells: human liver microsomes
Description: (§1) The purpose of this study was to evaluate the effect of the test compound on the activity of five isoenzymes (CYP1A2, CYP2C9, CYP2C19, CYP2D6 and CYP3A4) of human liver microsomal cytochrome P450 (CYP) by using an in vitro testing system. The specific probe substrates of CYP450 isoenzymes were incubated with human liver microsomes and test compounds of different concentrations, and reduced nicotinamide adenine dinucleotide phosphate (NADPH) was added to initiate the reaction. After the completion of the reaction, the sample was treated and liquid chromatography-tandem mass spectrometry (LC-MS/MS) was used to quantitatively detect metabolites produced by specific substrates, changes in CYP enzyme activity were determined, and IC50 value was calculated to evaluate the inhibitory potential of the test compound on each CYP enzyme subtype.

[4] = biological target: T3, CYP2D6 (Homo sapiens, UniProt P10635); assay: CYP450 enzyme inhibition, human liver microsomes, CYP2D6; assay type: in vitro ADME
T3 construct: incubated with human liver microsomes and test compounds of different concentrations; from tissue; host or cells: human liver microsomes
Description: as §1

[5] = biological target: T4, CYP1A2 (Homo sapiens, UniProt P05177); assay: CYP450 enzyme inhibition, human liver microsomes, CYP1A2; assay type: in vitro ADME
T4 construct: incubated with human liver microsomes and test compounds of different concentrations; from tissue; host or cells: human liver microsomes
T4 sequence (P05177 1-516): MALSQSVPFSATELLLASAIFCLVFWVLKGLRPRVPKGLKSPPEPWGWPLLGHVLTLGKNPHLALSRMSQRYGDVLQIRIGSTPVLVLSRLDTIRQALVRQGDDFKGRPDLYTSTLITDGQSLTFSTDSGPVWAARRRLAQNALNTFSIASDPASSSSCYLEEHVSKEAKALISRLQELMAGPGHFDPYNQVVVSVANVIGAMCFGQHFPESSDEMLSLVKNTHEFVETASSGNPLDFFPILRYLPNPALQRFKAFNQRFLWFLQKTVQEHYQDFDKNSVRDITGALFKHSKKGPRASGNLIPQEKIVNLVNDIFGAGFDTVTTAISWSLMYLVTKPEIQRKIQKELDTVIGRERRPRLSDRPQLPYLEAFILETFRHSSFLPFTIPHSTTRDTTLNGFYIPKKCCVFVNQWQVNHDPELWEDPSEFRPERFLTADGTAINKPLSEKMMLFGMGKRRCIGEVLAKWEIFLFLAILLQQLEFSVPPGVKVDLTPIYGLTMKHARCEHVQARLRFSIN
Description: as §1

[6] = biological target: T5, CYP3A4 (Homo sapiens, UniProt P08684); assay: CYP450 enzyme inhibition, human liver microsomes, CYP3A4; assay type: in vitro ADME
T5 construct: incubated with human liver microsomes and test compounds of different concentrations; from tissue; host or cells: human liver microsomes
Description: as §1

[7] = biological target: T6, CYP2C9 (Homo sapiens, UniProt P11712); assay: CYP450 enzyme inhibition, human liver microsomes, CYP2C9; assay type: in vitro ADME
T6 construct: incubated with human liver microsomes and test compounds of different concentrations; from tissue; host or cells: human liver microsomes
Description: as §1

[8] = inhibition of hydrolysis of ATP, class symbols, read-out: Rabbit skeletal muscle myosin (IC50)
[9] = read-out: IC50 for inhibition of hydrolysis of ATP by rabbit skeletal muscle myosin

T6 sequence (P11712 whole entry): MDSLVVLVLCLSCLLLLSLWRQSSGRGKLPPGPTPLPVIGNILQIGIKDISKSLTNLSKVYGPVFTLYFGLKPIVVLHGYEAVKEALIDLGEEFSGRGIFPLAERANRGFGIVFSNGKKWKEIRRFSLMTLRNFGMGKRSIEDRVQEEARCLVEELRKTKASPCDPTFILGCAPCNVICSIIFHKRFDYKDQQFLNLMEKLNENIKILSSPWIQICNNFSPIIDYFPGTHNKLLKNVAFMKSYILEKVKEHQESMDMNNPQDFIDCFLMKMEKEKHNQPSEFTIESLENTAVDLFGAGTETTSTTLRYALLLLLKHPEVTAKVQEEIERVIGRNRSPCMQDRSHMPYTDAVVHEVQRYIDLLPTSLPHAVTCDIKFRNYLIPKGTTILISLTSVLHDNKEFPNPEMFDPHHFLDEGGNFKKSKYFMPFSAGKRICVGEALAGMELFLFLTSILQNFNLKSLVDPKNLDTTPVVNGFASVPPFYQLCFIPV
T5 sequence (P08684 whole entry): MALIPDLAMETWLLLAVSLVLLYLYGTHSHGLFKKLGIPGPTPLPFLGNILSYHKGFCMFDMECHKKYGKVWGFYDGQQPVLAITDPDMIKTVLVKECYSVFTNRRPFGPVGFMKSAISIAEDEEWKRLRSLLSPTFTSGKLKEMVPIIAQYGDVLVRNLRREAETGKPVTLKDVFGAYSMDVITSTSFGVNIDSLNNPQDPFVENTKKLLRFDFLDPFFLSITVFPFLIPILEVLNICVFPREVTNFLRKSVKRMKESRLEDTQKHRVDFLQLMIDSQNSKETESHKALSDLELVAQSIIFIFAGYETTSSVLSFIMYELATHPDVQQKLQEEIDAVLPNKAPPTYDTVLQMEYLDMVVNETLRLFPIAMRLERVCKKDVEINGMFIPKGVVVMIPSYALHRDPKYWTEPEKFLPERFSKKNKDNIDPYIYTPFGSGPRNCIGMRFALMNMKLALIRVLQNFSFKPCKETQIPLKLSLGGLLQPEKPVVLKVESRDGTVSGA
T1 sequence (P10587 84-789 limits assumed): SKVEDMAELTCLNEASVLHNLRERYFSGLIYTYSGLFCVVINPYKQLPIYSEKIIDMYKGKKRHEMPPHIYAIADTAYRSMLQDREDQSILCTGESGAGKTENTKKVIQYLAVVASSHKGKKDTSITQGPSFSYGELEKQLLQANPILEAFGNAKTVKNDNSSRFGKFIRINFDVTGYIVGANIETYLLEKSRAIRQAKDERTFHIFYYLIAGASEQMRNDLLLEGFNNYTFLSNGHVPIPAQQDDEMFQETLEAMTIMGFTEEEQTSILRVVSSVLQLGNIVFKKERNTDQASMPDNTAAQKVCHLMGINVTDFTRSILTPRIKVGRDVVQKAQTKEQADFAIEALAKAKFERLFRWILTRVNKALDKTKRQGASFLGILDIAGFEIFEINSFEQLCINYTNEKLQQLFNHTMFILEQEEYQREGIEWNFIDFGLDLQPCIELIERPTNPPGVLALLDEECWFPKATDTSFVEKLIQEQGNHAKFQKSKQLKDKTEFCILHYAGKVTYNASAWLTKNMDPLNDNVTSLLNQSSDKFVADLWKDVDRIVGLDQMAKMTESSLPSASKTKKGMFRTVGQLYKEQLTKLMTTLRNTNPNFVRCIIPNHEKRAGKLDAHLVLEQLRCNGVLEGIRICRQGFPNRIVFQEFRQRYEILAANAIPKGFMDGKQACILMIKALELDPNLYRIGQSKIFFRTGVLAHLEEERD
T1 sequence (P02607 whole entry partner, the tested form may be a part): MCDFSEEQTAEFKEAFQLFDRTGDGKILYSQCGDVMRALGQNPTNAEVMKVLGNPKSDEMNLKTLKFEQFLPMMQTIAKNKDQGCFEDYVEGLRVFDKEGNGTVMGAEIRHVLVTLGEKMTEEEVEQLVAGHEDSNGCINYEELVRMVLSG
T2 sequence (P33261 whole entry): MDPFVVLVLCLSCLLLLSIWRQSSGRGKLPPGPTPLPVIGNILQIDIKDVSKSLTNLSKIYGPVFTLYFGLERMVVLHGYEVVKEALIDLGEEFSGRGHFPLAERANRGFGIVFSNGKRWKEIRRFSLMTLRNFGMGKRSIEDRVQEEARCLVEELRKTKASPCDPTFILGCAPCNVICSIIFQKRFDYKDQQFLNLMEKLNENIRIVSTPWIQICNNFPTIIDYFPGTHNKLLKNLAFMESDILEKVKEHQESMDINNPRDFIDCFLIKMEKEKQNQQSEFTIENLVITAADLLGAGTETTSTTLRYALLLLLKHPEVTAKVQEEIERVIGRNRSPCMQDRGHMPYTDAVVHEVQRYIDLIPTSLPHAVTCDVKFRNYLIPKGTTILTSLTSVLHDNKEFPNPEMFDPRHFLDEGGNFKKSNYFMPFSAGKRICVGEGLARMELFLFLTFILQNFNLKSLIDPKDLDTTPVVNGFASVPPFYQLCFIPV
T3 sequence (P10635 whole entry): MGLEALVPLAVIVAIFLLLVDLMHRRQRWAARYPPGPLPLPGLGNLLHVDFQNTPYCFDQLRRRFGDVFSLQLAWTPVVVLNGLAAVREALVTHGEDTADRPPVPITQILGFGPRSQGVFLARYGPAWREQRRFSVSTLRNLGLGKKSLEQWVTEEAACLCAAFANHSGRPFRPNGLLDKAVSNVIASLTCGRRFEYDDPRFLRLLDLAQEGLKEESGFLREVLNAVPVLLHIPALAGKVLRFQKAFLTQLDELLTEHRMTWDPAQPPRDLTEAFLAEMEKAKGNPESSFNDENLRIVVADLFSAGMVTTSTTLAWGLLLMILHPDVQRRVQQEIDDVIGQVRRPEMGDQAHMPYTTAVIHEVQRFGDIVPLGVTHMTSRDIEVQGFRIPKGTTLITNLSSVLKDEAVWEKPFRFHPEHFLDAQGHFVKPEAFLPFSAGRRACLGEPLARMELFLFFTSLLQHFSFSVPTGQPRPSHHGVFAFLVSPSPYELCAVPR

| IC50 [1, 8] | inhibition at 100 µM [2] | IC50 [3] | IC50 [4] | IC50 [5] | IC50 [6] | IC50 [7] | IC50 [1, 9] | SMILES |
| --- | --- | --- | --- | --- | --- | --- | --- | --- |
| < 2.5 µM | 13% | > 30 µM | > 30 µM | > 30 µM | > 30 µM | > 30 µM |  | N#CC1(COc2ncc(-c3ccc(=O)n(Cc4ccc5c(c4)C(=O)CC5)n3)cn2)CC1 [Compound 158] |
| 2.5 to 20 µM | 12% | > 30 µM | > 30 µM | > 30 µM | > 30 µM | > 30 µM |  | O=C1CCc2c(F)cc(Cn3nc(-c4cnc(O[C@H]5CCOC5)nc4)ccc3=O)cc21 [Compound 165] |
| < 2.5 µM | 17% | > 30 µM | > 30 µM | > 30 µM | > 30 µM | > 30 µM |  | O=C1CCc2ccc(Cn3nc(-c4cnc(OC5COCC5(F)F)nc4)ccc3=O)cc21 (stereo not drawn) [Compound 164] |
| < 2.5 µM | 17% | > 30 µM | > 30 µM | > 30 µM | > 30 µM | > 30 µM | 0.27 µM | O=C1CCc2c(F)cc(Cn3nc(-c4cnc(OCC(F)F)nc4)ccc3=O)cc21 [Compound 167] |

Continued, compound first:

| SMILES | IC50 [1, 8] | inhibition at 100 µM [2] | IC50 [3] | IC50 [4] | IC50 [5] | IC50 [6] | IC50 [7] | IC50 [1, 9] |
| --- | --- | --- | --- | --- | --- | --- | --- | --- |
| O=C1CCc2ccc(Cn3nc(-c4cnc(O[C@@H]5CCOC5)nc4)ccc3=O)cc21 [Compound 149] | < 2.5 µM | 2% | > 30 µM | > 30 µM | > 30 µM | > 30 µM | > 30 µM |  |
| O=C1CCc2ccc(Cn3nc(-c4cnc(OC5CC(F)(F)C5)nc4)ccc3=O)cc21 [Compound 141] | < 2.5 µM | 3% | > 30 µM | > 30 µM | > 30 µM | > 30 µM | > 30 µM | 0.8 µM |
| O=C1CCc2ccc(Cn3nc(-c4cnc(OCC(F)(F)F)nc4)ccc3=O)cc21 [Compound 88] | < 2.5 µM |  | > 30 µM | > 30 µM | > 30 µM | > 30 µM | > 30 µM | 0.8 µM |
| O=c1ccc(-c2cnc(OCC(F)(F)F)nc2)nn1Cc1ccc2c(c1)CCC2 [Compound 57] | < 2.5 µM | 3.3% |  |  |  |  |  | 0.33 µM |
| O=C1CCc2ccc(Cn3nc(-c4cnc(O[C@H]5CCOC5)nc4)ccc3=O)cc21 [Compound 150] | < 2.5 µM | 4% |  |  |  |  |  |  |
| O=C1CCc2ccc(Cn3nc(-c4cnc(OCC(F)F)nc4)ccc3=O)cc21 [Compound 131] | < 2.5 µM | -9% | > 30 µM | > 30 µM | > 30 µM | > 30 µM | > 30 µM | 0.4 µM |
| O=C1CCc2ccc(Cn3nc(-c4cnc(Oc5cncc(Cl)c5)nc4)ccc3=O)cc21 [Compound 151] | < 2.5 µM | 2% | > 30 µM | > 30 µM | > 30 µM | > 30 µM | > 30 µM | 0.7 µM |
